Like-named read-outs stand apart in the source and are kept apart here.
How the values were obtained:
[1] = test system: P. aeruginosa PAO1; experiment: MIC, CLSI broth microdilution, P. aeruginosa PAO1; type: cell-based, Pseudomonas aeruginosa; conditions: for MIC: Pseudomonas aeruginosa
Method: (§1) Antimicrobial Susceptibility Tests. Susceptibility testing was performed in biological triplicate, using the microdilution broth method as outlined by the Clinical and Laboratory Standards Institute. Bacteria were cultured with cation-adjusted Meuller-Hinton broth (Sigma-Aldrich; catalogue number: 90922) or Luria-Bertani (LB) broth (Lennox) in round-bottom 96-well plates (Corning; catalogue number: 3788).

[2] = test system: E. coli MG1655; experiment: MIC, E. coli MG1655; type: cell-based; conditions: Escherichia coli
Method: as §1

[3] = test system: S. aureus ATCC 29213; experiment: MIC, S. aureus ATCC 29213; type: cell-based; conditions: Staphylococcus aureus, ATCC29213, read-out: MIC S. aureus ATCC 29213
Method: as §1

[4] = test system: clinical isolates of P. aeruginosa; experiment: MIC against panel of clinical isolates of P. aeruginosa; type: cell-based, Pseudomonas aeruginosa; conditions: for MIC: Pseudomonas aeruginosa
Method: as §1

[5] = test system: FA resistance mutants of P. aeruginosa PAO1 A6; experiment: MIC in FA-resistant mutants; type: cell-based, Pseudomonas aeruginosa; conditions: mutants generated in PAO1 A6
Method: as §1
Selection ofresistant mutants. Resistant mutants were selected using the large inoculum method. […] Colonies were visible after incubating at 37° C. for 72 h.

[6] = test system: P. aeruginosa PAO1; experiment: DiSC3 (5) inner membrane depolarization assay; type: cell-based, Pseudomonas aeruginosa

CC(=O)O[C@H]1C[C@@]2(C)[C@@H](C[C@@H](O)[C@H]3[C@@]4(C)CC[C@@H](O)[C@@H](C)[C@@H]4CC[C@@]32C)/C1=C(\CCC=C(C)C)C(=O)O/N=C(\N)CNCCCNCCCNCCCN [FA prodrug, (3R, 4S,5S,8S,9S,10S,11R,13R,14S,16S,Z)-17-((Z)-1,14-diamino-22-methyl-17-oxo-16-oxa-4,8,12,15-tetraazatricosa-14,21-dien-18-ylidene)-3,11-dihydroxy-4,8,10,14-tetramethylhexadecahydro-1H-cyclopenta[a]phenanthren-16-yl acetate]
MIC against P. aeruginosa PAO1 [1]: 4 µg/mL | Fold change (MIC) ([1]; 5 mM MgCl2/CAMH versus CAMH (Table 10)): 32X | MIC P. aeruginosa PAO1, CAMH ([1]; CAMH (Table 10)): 4 µg/mL | shift in MIC on co-treatment with 5 mM MgCl2 ([1]; P. aeruginosa PAO1): 32 -fold | increase in activity relative to FA ([1]; PAO1 MIC): 256 -fold | MIC ([1]; PAO1): 4 µg/mL | MIC ([1]; PAO1, read-out: MIC P. aeruginosa PAO1): 4 µg/mL | MIC ([1]; PAO1, read-out: P. aeruginosa PAO1 MIC): 4 µg/mL | MIC P. aeruginosa PAO1, 5 mM MgCl2/CAMH ([1]; co-treatment 5 mM MgCl2 in CAMH (Table 10)): 128 | MIC ([2]; MG1655, read-out: E. coli MG1655 MIC): 4 µg/mL | MIC ([2]; MG1655, read-out: MIC E. coli MG1655): 4 µg/mL | MIC [3]: 1 µg/mL | improved activity relative to FA against 75 clinical isolates ([4]; FIG. 5c): 64-256 × | MIC ([4]; AR Bank Isolate # 0054): 16 µg/mL | MIC ([4]; AR Bank Isolate # 0064): 16 µg/mL | MIC ([4]; AR Bank Isolate # 0090): 16 µg/mL | MIC ([4]; AR Bank Isolate # 0092): 16 µg/mL | MIC ([4]; AR Bank Isolate # 0095): 16 µg/mL | MIC ([4]; AR Bank Isolate # 0100): 16 µg/mL | MIC ([4]; AR Bank Isolate # 0103): 16 µg/mL | MIC ([4]; AR Bank Isolate # 0110): 16 µg/mL | MIC ([4]; AR Bank Isolate # 0229): 16 µg/mL | MIC ([4]; AR Bank Isolate # 0230): 16 µg/mL | MIC ([4]; AR Bank Isolate # 0231): 8 µg/mL | MIC ([4]; AR Bank Isolate # 0232): 16 µg/mL | MIC ([4]; AR Bank Isolate # 0233): 16 µg/mL | MIC ([4]; AR Bank Isolate # 0234): 8 µg/mL | MIC ([4]; AR Bank Isolate # 0235): 8 µg/mL | MIC ([4]; AR Bank Isolate # 0236): 16 µg/mL | MIC ([4]; AR Bank Isolate # 0237): 16 µg/mL | MIC ([4]; AR Bank Isolate # 0239): 8 µg/mL | MIC ([4]; AR Bank Isolate # 0240): 16 µg/mL | MIC ([4]; AR Bank Isolate # 0241): 16 µg/mL | MIC ([4]; AR Bank Isolate # 0242): 8 µg/mL | MIC ([4]; AR Bank Isolate # 0243): 16 µg/mL | MIC ([4]; AR Bank Isolate # 0244): 16 µg/mL | MIC ([4]; AR Bank Isolate # 0245): 16 µg/mL | MIC ([4]; AR Bank Isolate # 0246): 8 µg/mL | MIC ([4]; AR Bank Isolate # 0248): 8 µg/mL | MIC ([4]; AR Bank Isolate # 0250): 16 µg/mL | MIC ([4]; AR Bank Isolate # 0252): 16 µg/mL | MIC ([4]; AR Bank Isolate # 0254): 32 µg/mL | MIC ([4]; AR Bank Isolate # 0265): 16 µg/mL | MIC ([4]; AR Bank Isolate # 0763): 16 µg/mL | MIC ([4]; AR Bank Isolate # 0767): 16 µg/mL | MIC ([4]; AR Bank Isolate # 0769): 16 µg/mL | MIC ([4]; AR Bank Isolate # 0772): 8 µg/mL | MIC ([4]; Carle Isolate ID # Cl-02): 8 µg/mL | MIC ([4]; Carle Isolate ID # Cl-03): 8 µg/mL | MIC ([4]; Carle Isolate ID # Cl-04): 16 µg/mL | MIC ([4]; Carle Isolate ID # Cl-05): 8 µg/mL | MIC ([4]; Carle Isolate ID # Cl-06): 8 µg/mL | MIC ([4]; Carle Isolate ID # Cl-07): 8 µg/mL | MIC ([4]; Carle Isolate ID # Cl-08): 8 µg/mL | MIC ([4]; Carle Isolate ID # Cl-09): 8 µg/mL | MIC ([4]; Carle Isolate ID # Cl-10): 16 µg/mL | MIC ([4]; Carle Isolate ID # Cl-11): 8 µg/mL | MIC ([4]; Carle Isolate ID # Cl-12): 8 µg/mL | MIC ([4]; Carle Isolate ID # Cl-13): 16 µg/mL | MIC ([4]; Carle Isolate ID # Cl-14): 8 µg/mL | MIC ([4]; Carle Isolate ID # Cl-15): 8 µg/mL | MIC ([4]; Carle Isolate ID # Cl-19): 8 µg/mL | MIC ([4]; Cubist Strain ID # 996): 8 µg/mL | MIC ([4]; Cubist Strain ID # 997): 8 µg/mL | MIC ([4]; Cubist Strain ID # 998): 8 µg/mL | MIC ([4]; Cubist Strain ID # 999): 8 µg/mL | MIC ([4]; Cubist Strain ID # 1000): 16 µg/mL | MIC ([4]; Cubist Strain ID # 1001): 16 µg/mL | MIC ([4]; Cubist Strain ID # 1174): 16 µg/mL | MIC ([4]; Cubist Strain ID # 1175): 16 µg/mL | MIC ([4]; Cubist Strain ID # 1176): 16 µg/mL | MIC ([4]; Cubist Strain ID # 1280): 16 µg/mL | MIC ([4]; Cubist Strain ID # 1282): 16 µg/mL | MIC ([4]; Cubist Strain ID # 1283): 16 µg/mL | MIC ([4]; Cubist Strain ID # 1284): 16 µg/mL | MIC ([4]; Cubist Strain ID # 1586): 16 µg/mL | MIC ([4]; Cubist Strain ID # 1590): 32 µg/mL | MIC ([4]; Cubist Strain ID # 1591): 32 µg/mL | MIC ([4]; Cubist Strain ID # 1592): 32 µg/mL | MIC ([4]; Cubist Strain ID # 1905): 16 µg/mL | MIC ([4]; Cubist Strain ID # 1906): 16 µg/mL | MIC ([4]; Cubist Strain ID # 2242): 8 µg/mL | MIC ([4]; Cubist Strain ID # 2243): 16 µg/mL | MIC ([4]; Cubist Strain ID # 2244): 8 µg/mL | MIC ([4]; Other strains (ref.) 1113): 16 µg/mL | MIC ([4]; Other strains (ref.) 1727): 8 µg/mL | MIC fold change in FA-resistant strains [5]: several fold change | inner membrane depolarization (DiSC3 (5) fluorescence) [6]: dose-dependent inner membrane depolarization
